Reference: patent US5891916A, “Aromatic hydroxamix acid compounds, their production and use” (Takeda Chemical Industries, Ltd., priority 1995, dated 1999)

What follows are molecules tested on rats pretreated with LPS infused into the unilateral striatum (assay: Inhibitory effect on the apomorphine-induced circling behavior in rats pretreated with LPS infused into the unilateral striatum). Settings: male Wistar rats; i.p. 0.2 ml per 100 g, 30 minutes before LPS infusion and 3 and 24 hours after; apomorphine 1 mg/kg s.c. 7-8 days postoperatively; 30-minute count.
Type: in vivo, rat
Protocol: Inhibitory effect on the apomorphine -induced circling behavior in rats pretreated with LPS infused into the unilateral striatum Male Wistar rats (8-9 week old) weighing 250-280 g at the operation for LPS infusion were submitted to this experiment.. Throughout the experimental period, the animals were group-fed in a vivarium controlled at 24±1° C. and 55±1% R.H., with a light-dark cycle of 12 hr (7:00-19:00 ON) and free access to food (Clea Japan, Inc., CE-2 solid pellets) and water (tap water). Under pentobarbital (50 mg/kg, i.p.) anesthesia, the rat's head was immobilized in David Kopf's brain stereotaxic apparatus for small animal use and with reference to Pellegrino & Cushman's brain atlas, a 30 Gauge stainless steel needle was indwelled in the unilateral striatum (A8.2, L2.8, H4.3). The infusion volume of LPS was set at 5 μg. LPS was dissolved in 1 μl of a phosphate-buffered physiological saline solution (PBS, pH 7.2) and the solution was infused gradually at a speed of 0.2 μl/min. The infusion needle was kept in position till 3 minutes following infusion and withdrawn only after sufficient diffusion of the drug solution had taken place. After 7-8 days postoperatively, 1 mg/kg of apomorphine was administered subcutaneously and the number of induced circling behavior during a 30-minute period immediately following administration were determined with an automatic counter. […]

Structure (SMILES)	number of induced circling behavior relative to control group [%]
N#CC(CCCCCC(=O)NO)(c1ccccc1)c1ccccc1 [Compound 1, 7-Cyano-7,7-diphenylheptanohydroxamic acid]	41

What follows are molecules tested on rat mixed cerebral cell culture (assay: Neutralizing effect on lipopolysaccharide (LPS)-induced cytotoxicity in a rat mixed cerebral cell culture system (LIC assay)). Settings: neonatal rat mixed cerebral cells, 4 to 5 days incubation, MTT, concentration giving 50% recovery rate, read-out: ED50 value.
Type: cell-based
Protocol: Neutralizing effect on lipopolysaccharide (LPS)--induced cytotoxicity in a rat mixed cerebral cell culture system (LIC assay)
LPS, a substance known to activate glial cells (astrocytes, microglia), was added to a rat mixed cerebral cell culture system and the compounds which would neutralize the cytotoxicity induced by LPS were screened by the following method.
(1) Neonatal rat mixed cerebral cell culture
From neonatal Crj:CD (SD) rats (1-3 day old, Charles-River Japan, Ltd), the brains were isolated and placed in ice-cooled D-MEM/10% FCS (Dulbecco's cell culture minimal essential medium supplemented with 10% of fetal calf serum, 100 units/ml of penicillin and 100 gg/ml of streptomycin). Then, mixed cerebral cell culture were treated in the following steps. Incidentally stating, ice-cooled D-MEM/10%FCS was used as the medium.
1. The cerebrum was separated from the enucleated brain and the meninges was removed under a stereoscopic microscope.
2. The cerebrums were placed in a nylon-mesh (100-200 μm) bag for filtration with the aid of a rubber policeman.
3. Using ice-cooled D-MEM/10% FCS, the cells were washed three times (1,000 rpm, 8 min.). Then, this cell suspension was subjected to filtration through a cell strainer (40 μm mesh, Falcon 2340) and the number of viable cells was counted by the trypan blue method.
4. The cells were seeded in a tissue-culture flask (96-well microtiter plate, Nunc) at a cell density of 1×10^5 cells/100 μl/well).
5. One week later, 100 μl/well of D-MEM/10% FCS was added.
6. The plate was further incubated for about 1 to 2 weeks and the neutralizing activity of the test compounds was evaluated by the following method.
(2) Evaluation of neutralizing activity
1. Following the rat mixed cerebral cell culture in (1) above (after 2-3 weeks of incubation), the medium was discarded from the respective wells of the 96-well microtiter plate, and 50 μl/well of fresh D-MEM/2% FCS was added.
2. A test sample and LPS (manufactured by Difco Inc., E. coli 011: B4, Bact) of an adequate concentration, 25 μl per well, were respectively added. D-MEM/2% FCS was employed as the medium.
As the test sample, each of the compounds shown in Table 21 was dissolved in DMSO at a concentration of 10^-2 M and the solution was diluted with D-MEM/2% FCS, which was used for assay.
3. After a suitable period (usually 4 to 5 days) of incubation, the degree of cytotoxic effect was assessed by the microscopic observation, and MTT method.
(3) MTT [3-(4,5-dimethylthiazol-2-yl)-2,5-diphenyltetrazolium bromide] method
MTT dissolved in a phosphate-buffered physiological saline solution (5 mg/ml, manufactured by Sigma Chemical Co.,) was added, 10 μl per well. After 4 to 6 hours of incubation (37° C., under 10% carbon dioxide gas phase), 100 μl/well of 0.01N HCl containing 10% SDS was added to thereby dissolve the formed formazan. After complete dissolution, the absorbance (wave-length 540-590 nm) was measure for each well.
The ED50 values were determined by calculating the recovery rates by means of the following equation and plotting the concentrations of compounds giving a recovery rate of 50% on graph paper.
Recovery rate (%)=(C-B)×100/(A-B)
[A: the absorbance at 550 nm of the control well to which only the medium had been was added
B: the absorbance at 550 nm of the well to which LPS had been added
C: the absorbance at 550 nm of the well to which both LPS and the test compound had been added]

Structure (SMILES)	EC50 [nM]
N#CC(CCCCCC(=O)NO)(c1ccccc1)c1ccccc1 [Compound 1, 7-Cyano-7,7-diphenylheptanohydroxamic acid]	10
N#CC(CCCCCC(=O)NO)(c1ccccc1)c1ccc(F)cc1 (stereo not drawn) [Compound 3, 7-cyano-7-(4-fluorophenyl)-7-phenylheptanohydroxamic acid]	10
COc1ccccc1C(C#N)(CCCCCC(=O)NO)c1ccccc1 (stereo not drawn) [Compound 4, 7-cyano-7-(2-methoxyphenyl)-7-phenylheptanohydroxamic acid]	10
N#CC(CCCCCC(=O)NO)(c1ccccc1)c1nc2ccccc2s1 (stereo not drawn) [Compound 11, 7-(2-benzothiazolyl)-7-cyano-7-phenylheptanohydroxamic acid]	10
N#CC(CCCCCC(=O)NO)(c1ccccc1)c1ccc2ccccc2n1 (stereo not drawn) [Compound 12, 7-cyano-7-phenyl-7-(2-quinolyl)heptanohydroxamic acid]	10
CCC(=O)ONC(=O)CCCCCC(C#N)(c1ccccc1)c1ccccc1 [Compound 13, O-Propionyl-7-cyano-7,7-diphenylheptanohydroxamic acid]	10
CCC(=O)ONC(=O)CCCCCC(C#N)(c1ccccc1)c1ccc2ccccc2n1 (stereo not drawn) [Compound 20, O-propionyl-7-cyano-7-phenyl-7-(2-quinolyl)heptanohydroxamic acid]	10
N#CC(CCCCCC(=O)NOC(=O)c1ccccc1)(c1ccccc1)c1ccc2ccccc2n1 (stereo not drawn) [Compound 21, O-benzoyl-7-cyano-7-phenyl-7-(2-quinolyl)heptanohydroxamic acid]	10
